Results published in patent publication US20170226552A1, “METHODS FOR MODULATING PROTEIN GLY[…] OF R[…] THERAPEUTICS USING COBALT” (AbbVie Inc., priority 2014, published 2017).

Tests used:
Format in all cases: cell-based, Chinese Hamster
[1] = tested on: Cell Line 1 (CHO cell line expressing Antibody 1); experiment: Cell Line 1 shake flask fedbatch culture: viable cell density and cell viability (trypan blue exclusion)
Description: (§1) Two recombinant Chinese Hamster Ovary (CHO) cell lines expressing two different recombinant glycoproteins were evaluated in 2 different culture vessels (shaker flasks and 3 L laboratory scale bioreactors). Cell Line 1 expressed humanized Antibody 1, and Cell Line 2 expressed Dual Variable Domain Immunoglobulin 1 (DVD1). Antibody 1 was an IgG1 glycoprotein, and DVD1 was an immunoglobulin glycoprotein with two variable domains as documented previously (Wu C. et al., (2007) Nat Biotechnol 25(11):1290-7).
(§2) Both cells lines were of CHO DUX-B11 origin based on a dhfr (dihydrofolate reductase) expression system. All cultures utilized the same chemically defined basal media (CDBM), and chemically-defined feed media (CDFM), except Cell Linel utilized a CDFM that was enriched at a 50% higher relative concentration. Each of the experimental conditions were supplemented with cobalt chloride (Sigma-Aldrich, St. Louis, Mo.) to evaluate its potential impact on the resulting N-glycan oligosaccharide profile. In preparation of the cultures, the cell lines were expanded through separate seed train inoculums to generate enough cell biomass for inoculation of multiple cultures. Process conditions utilized during the cultures were similar between each experimental condition and the respective non-cobalt supplemented control condition (Table 1).
(§3) Viable cell density (VCD) and cell viability values were measured through trypan blue exclusion via Cedex automated cell counters (Roche Applied Science, Indianapolis, Ind.), glucose and lactate values were measured with a ABL-805 (Radiometer Medical, Denmark) blood gas analyzer. Offline pH, dissolved oxygen (DO), and pCO2 measurements were also performed with a ABL-805 (Radiometer Medical, Denmark) blood gas analyzer. Osmolality was measured on a Multi-Osmette 2430 osmometer (Precision Systems, Natick, Mass.).

[2] = tested on: Cell Line 1 (CHO cell line expressing Antibody 1); experiment: Cell Line 1 3 L laboratory-scale bioreactor culture: N-glycan oligosaccharide profile of Antibody 1
Description: as §1
(§4) Both cells lines were of CHO DUX-B11 origin based on a dhfr (dihydrofolate reductase) expression system. […]
(§5) Approximately 200 μg of Protein A purified samples from Cell Lines 1 and 2 were treated with N-glycanase at 37° C. for an overnight duration to remove the N-glycans from the protein. […] Following the derivatization step, the excess dye was removed using clean up cartridges and the samples were analyzed using normal phase HPLC with fluorescent detection. […] The labeled glycans were detected using a fluorescence detector with an excitation wavelength of 330 nm and an emission wavelength of 420 nm.
3 L scale-down model bioreactors were utilized to verify the impact of CoCl2 on the resulting protein glycosylation profiles in Cell Line 1. Cell culture process performance indicators were monitored and measured throughout the respective cultures. […]

[3] = tested on: Cell Line 2 (CHO cell line expressing DVD1); experiment: Cell Line 2 shake flask fedbatch culture: N-glycan oligosaccharide profile of DVD1
Description: as §1, §2
Purified antibodies subjected to additional analytical characterization were purified using MabSelect™ Protein A (GE Healthcare, Piscataway, N.J.) using a low pH, step elution gradient, followed by buffer exchange using Spin Concentrator X UF columns (Corning Lifesciences, Tewksbury, Mass.), or equivalent, according to the manufacturer's recommended procedure.
Approximately 200 μg of Protein A purified samples from Cell Lines 1 and 2 were treated with N-glycanase at 37° C. for an overnight duration to remove the N-glycans from the protein. The protein was precipitated and the supernatant was taken for subsequent chemical derivatization of the reducing end of the released glycans with 2-aminobenzamide (2-AB) dye. Following the derivatization step, the excess dye was removed using clean up cartridges and the samples were analyzed using normal phase HPLC with fluorescent detection. Mobile phase A was 100% acetonitrile and mobile phase B was 50 mM ammonium formate at pH 4.4. The glycans were eluted from a polyamide column (Prozyme, Hayward, Calif.) using a shallow gradient. The labeled glycans were detected using a fluorescence detector with an excitation wavelength of 330 nm and an emission wavelength of 420 nm.

[4] = tested on: Cell Line 1 (CHO cell line expressing Antibody 1); experiment: Cell Line 1 3 L laboratory-scale bioreactor culture: harvest titer of Antibody 1; conditions: Cell Line 1, 3 L bioreactor, 50 μM CoCl2
Description: as §1, §4
Antibody titers were measured from crude cell culture harvests on a Poros A™ (Life Technologies, Carlsbad, Calif.) affinity column using an HPLC system operating with a low pH, step elution gradient with detection at 280 nm. […]
3 L scale-down model bioreactors were utilized to verify the impact of CoCl2 on the resulting protein glycosylation profiles in Cell Line 1. Cell culture process performance indicators were monitored and measured throughout the respective cultures. Viable cell density, cell viability, harvest titer, and harvest N-glycan oligosaccharide data was measured and reported. […]

[5] = tested on: Cell Line 1 (CHO cell line expressing Antibody 1); experiment: Cell Line 1 3 L laboratory-scale bioreactor culture: cell culture performance (VCD, viability, glucose, lactate, osmolality); conditions: Cell Line 1, 3 L bioreactor, 50 μM CoCl2
Description: as §1, §2, §3
3 L scale-down model bioreactors were utilized to verify the impact of CoCl2 on the resulting protein glycosylation profiles in Cell Line 1. Cell culture process performance indicators were monitored and measured throughout the respective cultures. Viable cell density, cell viability, harvest titer, and harvest N-glycan oligosaccharide data was measured and reported. FIG. 4 highlights the cell culture performance results observed through the use of 50 μM CoCl2 targeted supplementation into the CDBM and CDFM. Similar to the shake flask results, there was a modest drop in the viable cell density profile (FIG. 4A), but no change in the viability profile in the 50 μM CoCl2 supplemented culture (FIG. 4B). […] Similar to the shake flask results using 50 μM CoCl2, there was a nominal drop in the final harvest titer with the cobalt supplemented culture achieving a final harvest titer 10% below that of the unsupplemented control (FIG. 4F).

[6] = tested on: Cell Line 2 (CHO cell line expressing DVD1); experiment: Cell Line 2 shake flask fedbatch culture: viable cell density and cell viability (trypan blue exclusion)
Description: as §1, §2, §3

[7] = tested on: Cell Line 2 (CHO cell line expressing DVD1); experiment: Cell Line 2 shake flask fedbatch culture: harvest titer of DVD 1 (Poros A HPLC)
Description: as §1, §2
(§6) Antibody titers were measured from crude cell culture harvests on a Poros A™ (Life Technologies, Carlsbad, Calif.) affinity column using an HPLC system operating with a low pH, step elution gradient with detection at 280 nm. Absolute concentrations were assigned with respect to reference standard calibration curves.

[8] = tested on: Cell Line 1 (CHO cell line expressing Antibody 1); experiment: Cell Line 1 shake flask fedbatch culture: N-glycan oligosaccharide profile of Antibody 1
Description: as §1
as §2, with “1). […]” for “1).”
as §5

[9] = tested on: Cell Line 1 (CHO cell line expressing Antibody 1); experiment: Cell Line 1 shake flask fedbatch culture: harvest titer of Antibody 1 (Poros A HPLC)
Description: as §1, §2, §6

[10] = Cell Line 2, shake flask, 100 μM cobalt
[11] = Cell Line 2, shake flask, 1-100 μM CoCl2

SMILES: [Cl-].[Cl-].[Co+2] [CoCl2, cobalt (II) chloride]
- concentration up to which there was a negligible impact on cell growth ([1]; Cell Line 1): 50 µM
- peak VCD compared to the control ([1]; Cell Line 1, shake flask, 1, 5, and 25 μM): approximately similar
- peak VCD ([1]; Cell Line 1, shake flask, cobalt 50 μM in CDBM and CDFM): approximately 9.4×10^6 cells/mL
- peak VCD ([1]; Cell Line 1, shake flask, cobalt 100 μM in CDBM and CDFM): ~7.0×10^6 cells/mL
- cell viability at harvest compared to the unsupplemented control ([1]; Cell Line 1, shake flask, each cobalt concentration evaluated (1-100 μM), harvest Day 14): slightly higher cell viability
- increase in NA1F species vs unsupplemented control ([2]; Cell Line 1, 3 L bioreactor, 50 μM CoCl2): approximately 8%
- maximum absolute percentage increase in galactosylated N-glycans relative to the unsupplemented control ([2]; Cell Line 1, 3 L scale bioreactors): 8%
- increase in NA1F glycans vs unsupplemented control [3, 10]: 6.2%
- change in relative abundance of NGA2F-GlcNAc vs unsupplemented control [3, 11]: statistically significant decreases
- change in relative abundance of high mannose glycans vs unsupplemented control [3, 11]: statistically significant decreases
- change in NA2F species vs unsupplemented control ([3]; Cell Line 2, shake flask, 1-100 μM CoCl2, much lower relative amount than NA1F): increased
- maximum absolute percentage increase in galactosylated N-glycans relative to the unsupplemented control ([3]; Cell Line 2, shaker flask cultures): 6%
- final harvest titer below that of the unsupplemented control [4]: 10%
- glucose levels in the culture media vs unsupplemented control over time [5]: approximately similar
- higher lactate concentration in culture media vs unsupplemented control [5]: ≤ 0.5 g/L
- osmolality levels vs unsupplemented control [5]: slightly elevated
- viability profile vs unsupplemented control [5]: no change
- viable cell density profile vs unsupplemented control [5]: modest drop
- concentration up to which there was a negligible impact on cell growth ([6]; Cell Line 2): 25 µM
- peak VCD compared to the control ([6]; Cell Line 2, shake flask, 1, 5, and 25 μM): approximately similar
- peak VCD ([6]; Cell Line 2, shake flask, cobalt 50 μM in CDBM and CDFM): approximately 10.6×10^6 cells/mL
- peak VCD ([6]; Cell Line 2, shake flask, cobalt 100 μM in CDBM and CDFM): ~6.7×10^6 cells/mL
- cell viability over time and at harvest ([6]; Cell Line 2, shake flask, higher cobalt media concentrations, after Day 6): higher cell viability
- concentration up to which there was a negligible impact on recombinant protein productivity ([7]; Cell Line 2): 5 µM
- decrease in productivity (harvest titer of DVD 1) vs control ([7]; Cell Line 2, shake flask, 25 μM cobalt): 20%
- decrease in productivity (harvest titer of DVD 1) vs control ([7]; Cell Line 2, shake flask, 50 μM cobalt): 35%
- decrease in productivity (harvest titer of DVD 1) vs control [7, 10]: 47%
- impact on recombinant antibody productivity (harvest titer of DVD 1) ([7]; Cell Line 2, shake flask, 1 and 5 μM cobalt): negligible impact
- change in relative abundance of NGA2F-GlcNAc vs unsupplemented control ([8]; 1-100 μM CoCl2): statistically significant decreases
- change in NA2F species vs unsupplemented control ([8]; 1-100 μM CoCl2, much lower relative amount than NA1F): increased
- change in NA1F species vs unsupplemented control ([8]; concentration-dependent, 1-100 μM CoCl2): increase
- concentration up to which there was a negligible impact on recombinant protein productivity ([9]; Cell Line 1): 50 µM
- drop in productivity (harvest titer of Antibody 1) vs control ([9]; Cell Line 1, shake flask, 100 μM cobalt): 21%
- impact on recombinant antibody productivity (harvest titer of Antibody 1) ([9]; Cell Line 1, shake flask, 1, 5, 25, and 50 μM cobalt): negligible impact
